Test results from ChEMBL document CHEMBL3351387, “Bioisosteric replacement of an acylureido moiety attached to an indolin-2-one scaffold with a malonamido or a 2/4-pyridinoylamido moiety produces a selectively potent Aurora-B inhibitor” (Eur J Med Chem, 2014).

Assays:
Cytochrome P450 2C9 = Cytochrome P450 2C9 (Homo sapiens, UniProt P11712); experiment: Inhibition of CYP2C9 (unknown origin) using Vivid OOMR substrate; format: ADME
A549 [1] = experiment: Cytotoxicity against human A549 cells by SRB assay; format: cell-based
[2] = Volume of distribution at steady state in rat at 2 mg/kg, iv after 24 hrs by LC-ESI-MS/MS method; format: ADME, organism-based; set-up: dose 2 mg/kg, route intravenous; settings: in vivo, read-out: Vdss
[3] = Half life in rat plasma at 2 mg/kg, iv after 24 hrs by LC-ESI-MS/MS method; format: ADME, organism-based; set-up: dose 2 mg/kg, route intravenous
[4] = Plasma concentration rat at 2 mg/kg, iv after 24 hrs by LC-ESI-MS/MS method; format: ADME, organism-based; set-up: dose 2 mg/kg, route intravenous
A549 [5] = experiment: Anti-invasive activity against human A549 cells assessed as inhibition of cell invasion by transwell invasion assay
Cytochrome P450 3A4 = Cytochrome P450 3A4 (Homo sapiens, UniProt P08684); experiment: Inhibition of CYP3A4 (unknown origin) using Vivid OOMR substrate; format: ADME
[6] = Antitumor activity against human HuH7 cells xenografted in po dosed SCID mouse assessed as inhibition of tumor growth at 2.5 mg/kg, iv qd measured on day 14; format: functional; settings: Huh-7, 336 h
A549 [7] = experiment: Antimigratory activity against human A549 cells assessed as inhibition of cell migration after 8 to 16 hrs by scratch wound model assay
[8] = Antitumor activity against human HuH7 cells xenografted in iv dosed SCID mouse assessed as inhibition of tumor growth at 5 mg/kg, iv qd for 14 days measured on day 9; settings: Huh-7, iv
HepG2 = experiment: Cytotoxicity against human HepG2 cells by SRB assay; format: cell-based
Rattus norvegicus = experiment: AUC (0 to 24 hrs) in rat plasma at 2 mg/kg, iv after 24 hrs by LC-ESI-MS/MS method; format: ADME, organism-based; set-up: time < 24 hr, dose 2 mg/kg, route intravenous; settings: in vivo
[9] = Antitumor activity against human HuH7 cells xenografted in po dosed SCID mouse assessed as inhibition of tumor growth at 2.5 mg/kg, iv qd for 14 days measured on day 9; format: functional; settings: Huh-7
[10] = Plasma concentration rat at 2 mg/kg, iv after 5 mins by LC-ESI-MS/MS method; format: ADME, organism-based; set-up: dose 2 mg/kg, route intravenous
Cytochrome P450 2C19 = Cytochrome P450 2C19 (Homo sapiens, UniProt P33261); experiment: Inhibition of CYP2C19 (unknown origin) using 3-Cyano-7-ethoxycoumarin substrate; format: ADME
Vero = experiment: Cytotoxicity against african green monkey Vero cells; format: cell-based; settings: chlorocebus sabaeus
[11] = Clearance in rat at 2 mg/kg, iv after 24 hrs by LC-ESI-MS/MS method; format: ADME, organism-based; set-up: dose 2 mg/kg, route intravenous; settings: in vivo

Chain of Cytochrome P450 2C9 (P11712 whole entry): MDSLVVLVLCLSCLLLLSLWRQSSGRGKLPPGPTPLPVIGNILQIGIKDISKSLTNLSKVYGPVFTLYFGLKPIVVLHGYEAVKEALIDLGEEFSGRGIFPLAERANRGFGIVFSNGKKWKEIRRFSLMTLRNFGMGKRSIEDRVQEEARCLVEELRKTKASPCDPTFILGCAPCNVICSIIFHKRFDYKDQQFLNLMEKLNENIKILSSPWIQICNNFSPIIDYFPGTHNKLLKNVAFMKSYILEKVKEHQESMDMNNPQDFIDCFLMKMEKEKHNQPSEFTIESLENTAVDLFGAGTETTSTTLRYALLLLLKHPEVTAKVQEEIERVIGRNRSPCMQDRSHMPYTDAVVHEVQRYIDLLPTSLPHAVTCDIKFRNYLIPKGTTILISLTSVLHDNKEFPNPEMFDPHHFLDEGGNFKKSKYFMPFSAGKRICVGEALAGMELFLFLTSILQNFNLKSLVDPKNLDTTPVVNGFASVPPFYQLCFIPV
Chain of Cytochrome P450 2C19 (P33261 whole entry): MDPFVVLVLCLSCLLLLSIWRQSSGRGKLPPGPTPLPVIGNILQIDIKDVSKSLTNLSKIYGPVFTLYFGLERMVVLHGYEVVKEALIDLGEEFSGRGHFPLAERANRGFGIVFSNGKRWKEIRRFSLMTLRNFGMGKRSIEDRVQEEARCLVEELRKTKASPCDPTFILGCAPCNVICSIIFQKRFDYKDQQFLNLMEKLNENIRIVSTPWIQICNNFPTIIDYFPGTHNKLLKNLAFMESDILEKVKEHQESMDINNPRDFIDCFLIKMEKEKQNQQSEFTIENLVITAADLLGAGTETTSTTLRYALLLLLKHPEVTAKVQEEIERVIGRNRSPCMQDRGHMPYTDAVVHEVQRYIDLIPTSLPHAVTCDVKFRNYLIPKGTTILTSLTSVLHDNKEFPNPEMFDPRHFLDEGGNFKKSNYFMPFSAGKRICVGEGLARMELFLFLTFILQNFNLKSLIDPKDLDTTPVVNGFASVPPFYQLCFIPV
Chain of Cytochrome P450 3A4 (P08684 whole entry): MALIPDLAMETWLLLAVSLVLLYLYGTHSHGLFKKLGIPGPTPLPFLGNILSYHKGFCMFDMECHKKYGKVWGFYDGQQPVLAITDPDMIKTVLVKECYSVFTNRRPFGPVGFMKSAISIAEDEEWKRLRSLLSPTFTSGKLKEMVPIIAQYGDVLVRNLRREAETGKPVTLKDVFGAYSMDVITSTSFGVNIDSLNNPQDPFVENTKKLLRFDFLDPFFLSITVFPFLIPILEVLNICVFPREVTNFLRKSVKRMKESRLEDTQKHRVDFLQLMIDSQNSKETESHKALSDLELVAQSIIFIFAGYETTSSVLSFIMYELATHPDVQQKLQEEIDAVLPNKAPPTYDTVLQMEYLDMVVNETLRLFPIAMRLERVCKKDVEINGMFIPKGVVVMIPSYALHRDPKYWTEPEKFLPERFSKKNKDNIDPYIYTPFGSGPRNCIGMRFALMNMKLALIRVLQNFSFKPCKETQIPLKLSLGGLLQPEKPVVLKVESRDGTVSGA

**Q.** Which IC50 (Cytochrome P450 2C9) does the source give for O=C1Nc2cc(NC(=O)c3c[nH]cc(-c4ccccc4F)c3=O)ccc2/C1=C/c1ccc[nH]1 here?
**A.** 0.04 µM

**Q.** What about the IC50 (A549 [1]) of the same molecule?
**A.** 0.5 µM

**Q.** What about the Vd [2] of the same molecule?
**A.** 9.34 L/kg

**Q.** And the half-life [3]?
**A.** 11.8 h

**Q.** What about the concentration at 24 h [4] of the same molecule?
**A.** 10 ng/mL

**Q.** And the IC50 (A549 [5])?
**A.** 3.2 µM

**Q.** And the IC50 (Cytochrome P450 3A4)?
**A.** > 10 µM

**Q.** And the inhibition in vivo at 2.5 mg/kg [6]?
**A.** 38%

**Q.** And the IC50 (A549 [7])?
**A.** 4.1 µM

**Q.** And the inhibition in vivo at 5 mg/kg [8]?
**A.** 61%

**Q.** What about the IC50 (HepG2) of the same molecule?
**A.** 0.6 µM

**Q.** And the AUC (Rattus norvegicus)?
**A.** 3660 ng·h/mL

**Q.** And the inhibition in vivo at 2.5 mg/kg [9]?
**A.** 56%

**Q.** And the concentration at 5 min [10]?
**A.** 4790 ng/mL

**Q.** What about the IC50 (Cytochrome P450 2C19) of the same molecule?
**A.** 3.5 µM

**Q.** And the Activity (Vero)?
**A.** Non-toxic

**Q.** What about the clearance [11] of the same molecule?
**A.** 9.41 mL/min/kg
